11 substances from patent US20080145313A1, “Compositions and Methods for the Treatment and Prevention of Neoplastic Disorders” (Genesis Research & Development Corporation Limited, priority 2006, published 2008) can be followed below.

The data set has as its system A549 cells. Description: Growth inhibition of siRNA-transfected A549 cells, SYBR Green I DNA content. The format is cell-based, human. As to conditions: 10 nM siRNA; DNA content 96 hours after transfection. A digest of the protocol:
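A549 cells reverse-transfected with 10 nM Stealth siRNAs via Lipofectamine RNAiMAX, seeded at 5×10^3 cells/cm^2 in RPMI 1640/10% FCS; non-specific siRNA control. DNA content read 96 h post-transfection by SYBR Green I fluorescence (ex 485/em 535 nm) after freeze-thaw and Triton X-100 lysis; mean of three wells.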

Consider “SEQ ID NO: 4997: siRNA targeting DGUOK (chain 1 GCCAGGAAGCCAGTACAGATCTTTG; chain 2 GCCAGGAAGCCAGUACAGAUCUUUG; chemistry not given here; one strand in two spellings)”, for which the “Growth Inhibition in A549 cells” value is given as “+ (inhibits by at least 50%)”.
Turning to “SEQ ID NO: 4828: siRNA targeting CAD (chain 1 TGTCTGAGAAGCCAAGACACTTGGC; chain 2 UGUCUGAGAAGCCAAGACACUUGGC; chemistry not given here; one strand in two spellings)”, the “Growth Inhibition in A549 cells” value is on record as “− (no growth inhibition with any siRNA)”.
As for “SEQ ID NO: 4809: siRNA targeting H6PD (G6PDH) (chain 1 TTTGCCAGACATCAGGATGAAAGGC; chain 2 UUUGCCAGACAUCAGGAUGAAAGGC; chemistry not given here; one strand in two spellings)”, the entry is “++ (inhibits by at least 75%)”; as for “SEQ ID NO: 4848: siRNA targeting COX5A (chain 1 ATAGCAGCGAACTGACTGGATAGCC; chain 2 AUAGCAGCGAACUGACUGGAUAGCC; chemistry not given here; one strand in two spellings)”, “++ (inhibits by at least 75%)”; as for “SEQ ID NO: 4840: siRNA targeting AK1 (chain 1 TAGCCATCAATCAGGAAGCCTTTGG; chain 2 UAGCCAUCAAUCAGGAAGCCUUUGG; chemistry not given here; one strand in two spellings)”, “+ (inhibits by at least 50%)”.
Turning to “SEQ ID NO: 4852: siRNA targeting ATP5B (chain 1 AATCATTGCCTTCACGGGTCCTCTC; chain 2 AAUCAUUGCCUUCACGGGUCCUCUC; Both strands are one antisense strand in DNA/RNA notation, chemistry not given here, further chemistry not given here; one strand in two spellings)”, the “Growth Inhibition in A549 cells” value was “− (no growth inhibition with any siRNA)”.
In the case of “SEQ ID NO: 4850: siRNA targeting COX5A (chain 1 ATTTAAAGTTGGTCTAAGTTCCTGG; chain 2 AUUUAAAGUUGGUCUAAGUUCCUGG; chemistry not given here; one strand in two spellings)”, the “Growth Inhibition in A549 cells” value was “− (no growth inhibition with any siRNA)”.
“SEQ ID NO: 4819: siRNA targeting PFKL (chain 1 TAGTAGTCATGGCACTTCTCGTTCC; chain 2 UAGUAGUCAUGGCACUUCUCGUUCC; chemistry not given here; one strand in two spellings)”: the “Growth Inhibition in A549 cells” value is recorded as “− (no growth inhibition with any siRNA)”.
As for “SEQ ID NO: 4820: siRNA targeting PFKL (chain 1 TAGTCTCTGAGATCTTACCTTCCGC; chain 2 UAGUCUCUGAGAUCUUACCUUCCGC; chemistry not given here; one strand in two spellings)”, the entry is “− (no growth inhibition with any siRNA)”; as for “SEQ ID NO: 4824: siRNA targeting CPS1 (chain 1 ATATGATGCAGCCACCACATGCCTC; chain 2 AUAUGAUGCAGCCACCACAUGCCUC; chemistry not given here; one strand in two spellings)”, “++ (inhibits by at least 75%)”.
Turning to “SEQ ID NO: 4849: siRNA targeting COX5A (chain 1 CAATTCCCAGGCATCTATATCTGGC; chain 2 CAAUUCCCAGGCAUCUAUAUCUGGC; chemistry not given here; one strand in two spellings)”, the “Growth Inhibition in A549 cells” value is listed as “− (no growth inhibition with any siRNA)”.
